Laboratory results as given in paper PMC9961948, “Interaction of Amphipathic Peptide from Influenza Virus M1 Protein with Mitochondrial Cytochrome Oxidase” (International Journal of Molecular Sciences, 2023).
Values joined by “and” are separate entries in the source; they are usually repeats but may differ in a detail not shown here. Equal entries are not always repeated. “Also recorded” adds a separate entry of the source. Where two headings read alike, the source gives them in different places.

Legend:
[1] = biological target: T1, cytochrome c oxidase (CcO) purified from heart mitochondria (Bos taurus, UniProt P00396+P07471+P68530); test: Cytochrome oxidase activity of solubilized mitochondrial CcO (oxygen uptake); assay type: biochemical; conditions: for enzyme activation at low concentrations: solubilized CcO from bovine heart mitochondria and from R. sphaeroides, authors' unpublished data
T1 construct: Cytochrome c oxidase was purified from the heart mitochondria of Bos taurus; from tissue; host or cells: bovine heart mitochondria

[2] = biological target: T1, cytochrome c oxidase (CcO) purified from heart mitochondria; conditions: earlier studies on steroids, Triton X-100 and thyroid hormones; ref [47],[48],[49]; read-out: dissociation constant of the complex between DM and BABS; cited from earlier work
From the text: The inhibition is notable by features characteristic of BABS regulatory site ligands such as some steroids and vitamin D [47], Triton Х-100 [48], and thyroid hormones Т3, Т4 [49]. […] The resistance of peroxidase activity is explained by the fact that the BABS ligands block the proton channel K, which is not involved in the p ...

[3] = biological target: T2, CcO in rat liver mitochondria (Rattus norvegicus, UniProt P00406+P05503); test: CcO activity in the mitochondrial membrane (respiration of rat liver mitochondria); assay type: biochemical; conditions: 100 μM peptide added in the course of respiration
T2 construct: Rat liver mitochondria were isolated by differential centrifugation; from tissue; host or cells: rat liver mitochondria

[4] = Permeabilization of calcein-loaded asolectin liposomes (calcein release); conditions: 5 μM peptide

T2 sequence (P00406 whole entry, other chains not shown): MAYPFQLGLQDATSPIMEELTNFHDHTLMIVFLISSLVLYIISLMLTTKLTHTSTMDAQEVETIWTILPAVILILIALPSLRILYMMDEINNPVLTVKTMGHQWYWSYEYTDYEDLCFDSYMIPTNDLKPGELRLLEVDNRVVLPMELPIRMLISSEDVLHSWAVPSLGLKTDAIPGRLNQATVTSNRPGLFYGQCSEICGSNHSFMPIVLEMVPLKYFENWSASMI

CCCCCCCCCCCCO[C@@H]1O[C@H](CO)[C@@H](O[C@H]2O[C@H](CO)[C@@H](O)[C@H](O)[C@H]2O)[C@H](O)[C@H]1O [DM, dodecyl-maltoside, reference compound]
Kd ([1]; dissociation constant of the enzyme-DM complex in the absence of P4 (Kc), solubilized mitochondrial CcO, X-axis intercept of Ki(app) for P4 versus [DM]): 500 µM and ~500 µM
Kd [2]: 1000 to 1500 µM

C[C@H](CCC(=O)O)[C@H]1CC[C@H]2[C@@H]3[C@H](O)C[C@@H]4C[C@H](O)CC[C@]4(C)[C@H]3C[C@H](O)[C@]12C [cholate, reference compound]
enzyme activation at low concentrations [1]: 1.5–2 fold

C[C@H](CCC(=O)O)[C@H]1CC[C@H]2[C@@H]3CC[C@@H]4C[C@H](O)CC[C@]4(C)[C@H]3C[C@H](O)[C@]12C [deoxycholate, reference compound]
enzyme activation at low concentrations [1]: 1.5–2 fold
maximum activation of CcO ([1]; solubilized mitochondrial CcO, 1 mM DM, 1.2 mM deoxycholate): approximately twice

Ac-STKLWEMLVELGNMDKAVKLWRKLSR-NH2 [A4]
effect on respiration rate of mitochondria [3]: complete inhibition
time to reach the 100% level of calcein release ([4]; 100% = after Triton X-100 0.1%): 3 min
t1/2 of fluorescence increase (calcein release) ([4]; liposomes 0.1 mg lipid/mL, 20 mM MOPS/Tris pH 7.3, 0.2 mM EDTA, fluorescence 520 nm (excitation 490 nm)): ~18 s

Ac-WVGMALENRKLKKDRLKVLKMLRWT-NH2 [A1]
effect on respiration rate of mitochondria [3]: does not reduce the rate of enzyme activity; also recorded: almost does not change
Ki ([1]; solubilized bovine heart CcO 20 nM, oxygen uptake, Clark electrode, 25 °C, BM 50 mM Hepes/Tris pH 7.6, 50 mM KCl, 1 mM (0.05%) DM, 5 mM ascorbate, 0.1 mM TMPD, 10 μM cytochrome c, fit by Equation (1), read-out: Inhibition of CcO, Solubilized, Ki(app)): 0.0208 mM
calcein release compared with P4 and A4 [4]: more than two orders of magnitude slower
rate of fluorescence increase (calcein release) [4]: < 1 % of the final level per 1 min
